From paper PMC9558423 (Molecular nutrition & food research, 2020)
Where a name gives a salt, the structure may show the parent alone. Read-outs that look alike come from different tables or passages of the source. Marks after values point to notes of the source that are not given here.

Legend:
[1] = for Qualitative Tmax (urine collection with greatest excretion): 12h urine collections, np = no peak; for Cmax (nmol excreted) / Tmax: urine; for Cmax (nmol excreted): mean ± SD; for Tmax: female, Sprague Dawley, rat, po
[2] = for Qualitative Tmax (blood collection with greatest plasma level): blood every 6h, np = no peak; for Plasma AUC: plasma 0–48h, trapezoidal; for Plasma AUC / Cmax: mean ± SD; for Cmax: plasma

Compound	Qualitative Tmax (urine collection with greatest excretion) ([1]; High dose (1000 mg/kg bw))	Cmax (nmol excreted) ([1]; High dose (1000 mg/kg bw))	Qualitative Tmax (urine collection with greatest excretion) ([1]; Low dose (75 mg/kg bw))	Cmax (nmol excreted) ([1]; Low dose (75 mg/kg bw))	Qualitative Tmax (urine collection with greatest excretion) ([1]; Medium dose (350 mg/kg bw))	Cmax (nmol excreted) ([1]; Medium dose (350 mg/kg bw))	Qualitative Tmax (blood collection with greatest plasma level) ([2]; High dose (1000 mg/kg bw))	Plasma AUC ([2]; High dose (1000 mg/kg bw))	Cmax ([2]; High dose (1000 mg/kg bw))	Qualitative Tmax (blood collection with greatest plasma level) ([2]; Medium dose (350 mg/kg bw))	Plasma AUC ([2]; Medium dose (350 mg/kg bw))	Cmax ([2]; Medium dose (350 mg/kg bw))	Tmax ([1]; 350 mg/kg)	Tmax ([1]; 1000 mg/kg)	Tmax ([1]; 75 mg/kg)	Qualitative Tmax (blood collection with greatest plasma level) ([2]; Low dose (75 mg/kg bw))	Plasma AUC ([2]; Low dose (75 mg/kg bw))	Cmax ([2]; Low dose (75 mg/kg bw))	Time of maximal urinary excretion after dosing ([1]; as stated in text/figure legend, doses not separated)
COc1ccc(CC(=O)O)cc1O [3-OH-4-OMe-PAA]	np	np	np	np	np	np													
COc1ccc(CCC(=O)O)cc1O [3-OH-4-OMe-PPA, 3-hydroxy-4-methoxyphenylpropionic acid]	12 to 24 h	2.48 ± 2.69 nmol excreted	0 to 12 h	0.82 ± 0.58 nmol excreted	12 to 24 h	2.69 ± 1.83 nmol excreted													
O=C(O)CCc1cccc(O)c1 [3-OH-PPA, 3-hydroxyphenylpropionic acid]	12 to 24 h	275 ± 34 nmol excreted	0 to 12 h	25.4 ± 6.9 nmol excreted	0 to 12 h	177 ± 24 nmol excreted	12 h	8.00 ± 2.22 ^x uM*h	507 ± 107 nM	12 h	2.46 ± 0.95 ^w uM*h	161 ± 92 nM							
O=C(O)CNC(=O)c1cccc(O)c1 [3-OH-hippuric acid, 3-hydroxyhippuric acid]		26.3 ± 7.6 nmol excreted	np	np		31.8 ± 8.1 nmol excreted							12 to 24 h	12 to 24 h					
O=C(O)Cc1ccc(O)cc1 [4-OH-PAA, 4-hydroxyphenylacetic acid]		0.51 ± 0.16 nmol excreted		0.30 ± 0.12 nmol excreted		0.84 ± 0.38 nmol excreted							0 to 24 h	0 to 24 h	0 to 24 h				
O=C(O[C@@H]1O[C@H](C(=O)O)[C@@H](O)[C@H](O)[C@H]1O)c1ccccc1 [BzA glucuronide]	12 to 24 h	0.76 ± 0.17 nmol excreted	np	np	12 to 24 h	0.85 ± 0.17 nmol excreted													
O=C(O)/C=C/c1ccc(O)c(O)c1 [Caffeic acid, caffeic acid]		3.97 ± 1.38 nmol excreted	np	np		3.18 ± 1.64 nmol excreted							0 to 12 h	0 to 12 h					
O=C(/C=C/c1ccc(O)c(O)c1)O[C@@H]1C[C@](O)(C(=O)O)C[C@@H](O)[C@H]1O [Chlorogenic acid, chlorogenic acid]		238 ± 67 nmol excreted	np	np		66.1 ± 23.4 nmol excreted							0 to 24 h	0 to 12 h					
OC[C@H]1O[C@@H](Oc2cc3c(O)cc(O)cc3[o+]c2-c2ccc(O)c(O)c2)[C@H](O)[C@@H](O)[C@H]1O [Cyanidin Galactoside]	0 to 12 h	0.46 ± 0.09 nmol excreted	np	np	0 to 12 h	0.19 ± 0.04 nmol excreted													
OC[C@H]1O[C@@H](Oc2cc3c(O)cc(O)cc3[o+]c2-c2ccc(O)c(O)c2)[C@H](O)[C@@H](O)[C@@H]1O [Cyanidin Glucoside, cyanidin-3-O-glucoside]	0 to 12 h	0.22 ± 0.04 nmol excreted	np	np	0 to 24 h	0.11 ± 0.05 nmol excreted													
OC[C@H]1O[C@@H](Oc2cc3c(O)cc(O)cc3[o+]c2-c2cc(O)c(O)c(O)c2)[C@H](O)[C@@H](O)[C@H]1O [Delphinidin Galactoside]	0 to 12 h	1.74 ± 0.22 nmol excreted	np	np	0 to 12 h	0.98 ± 0.20 nmol excreted													
OC[C@H]1O[C@@H](Oc2cc3c(O)cc(O)cc3[o+]c2-c2cc(O)c(O)c(O)c2)[C@H](O)[C@@H](O)[C@@H]1O [Delphinidin Glucoside, delphindin-3-O-glucoside]	0 to 24 h	0.94 ± 0.22 nmol excreted	np	np	0 to 24 h	0.81 ± 0.14 nmol excreted													
COc1cc(/C=C/C(=O)O)ccc1OS(=O)(=O)O [Ferulic acid sulfate]	0 to 12 h	18.7 ± 14.9 nmol excreted	np	np	0 to 12 h	7.41 ± 3.52 nmol excreted	6 h	9.12 ± 2.89 ^x uM*h	825 ± 317 nM	6 h	6.33 ± 3.04 ^x uM*h	262 ± 169 nM				np	6.16 ± 1.50 ^x uM*h	np	
COc1cc(-c2[o+]c3cc(O)cc(O)c3cc2O[C@@H]2O[C@H](CO)[C@H](O)[C@H](O)[C@H]2O)cc(OC)c1O [Malvidin Galactoside, malvidin-3-O-galactoside]	0 to 12 h	14.2 ± 1.3 nmol excreted	np	np	0 to 12 h	7.36 ± 2.00 nmol excreted													≤ 12 h
COc1cc(-c2[o+]c3cc(O)cc(O)c3cc2O[C@@H]2O[C@H](CO)[C@@H](O)[C@H](O)[C@H]2O)cc(OC)c1O [Malvidin Glucoside, malvidin-3-O-glucoside]	0 to 12 h	10.7 ± 0.9 nmol excreted	np	np	0 to 12 h	6.57 ± 0.57 nmol excreted													
COc1cc(-c2[o+]c3cc(O)cc(O)c3cc2OC2OC(CO)C(O)C(O)C2O)cc(O)c1O (stereo not shown) [Petunidin Galactoside, petunidin-3-O-galactoside]	0 to 12 h	1.73 ± 0.38 nmol excreted	np	np	0 to 12 h	0.49 ± 0.23 nmol excreted													
COc1cc(-c2[o+]c3cc(O)cc(O)c3cc2O[C@@H]2O[C@H](CO)[C@@H](O)[C@H](O)[C@H]2O)cc(O)c1O [Petunidin Glucoside, petunidin-3-O-glucoside]	0 to 12 h	0.94 ± 0.19 nmol excreted	np	np	0 to 12 h	0.37 ± 0.14 nmol excreted													
O=c1c(O)c(-c2ccc(O)c(O)c2)oc2cc(O)cc(O)c12 [Quercetin, quercetin]		11.5 ± 4.0 nmol excreted		3.88 ± 1.46 nmol excreted		10.1 ± 7.4 nmol excreted							0 to 12 h	0 to 12 h	0 to 12 h				
Caffeic acid sulfate	0 to 12 h	9.74 ± 0.78 nmol excreted	np	np	0 to 12 h	6.43 ± 4.57 nmol excreted													
delphinidin sulfate	0 to 24 h	20.2 ± 2.4 nmol excreted	np	np	0 to 24 h	18.2 ± 2.4 nmol excreted													
petunidin glucuronide	0 to 12 h	3.49 ± 0.46 nmol excreted	np	np	0 to 12 h	0.92 ± 0.24 nmol excreted													
